Measured values published in ChEMBL document CHEMBL1149304, “1,3,4-thiadiazole derivatives. Synthesis, structure elucidation, and structure-antituberculosis activity relationship investigation” (2004).

These compounds were tested on Mycobacterium tuberculosis (assay: Antituberculosis activity against Mycobacterium tuberculosis H37Rv ATCC 27294 at 6.25 ug/mL).
Type: functional

**Q.** How did the inhibition at 6.25 µg/mL turn out when `Clc1ccc(Nc2nnc(-c3ccccc3)s2)cc1` was run?
**A.** The inhibition at 6.25 µg/mL was 30%.

**Q.** For `Fc1ccc(Nc2nnc(-c3ccccc3)s2)cc1`, which inhibition at 6.25 µg/mL is on record?
**A.** Its inhibition at 6.25 µg/mL is 50%.

**Q.** With `Fc1ccc(-c2nnc(Nc3ccc(Cl)cc3)s2)cc1` as the compound, how does the inhibition at 6.25 µg/mL read?
**A.** Its inhibition at 6.25 µg/mL is 42%.

**Q.** For `Cc1ccc(Nc2nnc(-c3ccncc3)s2)cc1`, which inhibition at 6.25 µg/mL is on record?
**A.** Its inhibition at 6.25 µg/mL is 38%.

**Q.** Which inhibition at 6.25 µg/mL does the source give for `O=[N+]([O-])c1ccc(Nc2nnc(-c3ccncc3)s2)cc1` here?
**A.** Its inhibition at 6.25 µg/mL is 18%.

**Q.** With `Fc1ccc(Nc2nnc(-c3ccc(Cl)cc3)s2)cc1` as the compound, how does the inhibition at 6.25 µg/mL read?
**A.** Its inhibition at 6.25 µg/mL is 54%.

**Q.** With `Fc1ccc(Nc2nnc(-c3ccc(F)cc3)s2)cc1` as the compound, how does the inhibition at 6.25 µg/mL read?
**A.** Its inhibition at 6.25 µg/mL is 52%.

**Q.** With `O=[N+]([O-])c1ccc(Nc2nnc(-c3ccc([N+](=O)[O-])cc3)s2)cc1` as the compound, how does the inhibition at 6.25 µg/mL read?
**A.** Its inhibition at 6.25 µg/mL is 20%.

**Q.** Which inhibition at 6.25 µg/mL does the source give for `Fc1ccc(-c2nnc(Nc3ccc(Br)cc3)s2)cc1` here?
**A.** The inhibition at 6.25 µg/mL was 40%.

**Q.** How did the inhibition at 6.25 µg/mL turn out when `Clc1ccc(Nc2nnc(-c3ccncc3)s2)cc1` was run?
**A.** The inhibition at 6.25 µg/mL was 59%.

**Q.** For `O=[N+]([O-])c1ccc(-c2nnc(Nc3ccc(F)cc3)s2)cc1`, which inhibition at 6.25 µg/mL is on record?
**A.** The inhibition at 6.25 µg/mL was 30%.

**Q.** Which inhibition at 6.25 µg/mL does the source give for `Cc1ccc(Nc2nnc(-c3ccccc3)s2)cc1` here?
**A.** Its inhibition at 6.25 µg/mL is 21%.

**Q.** For `O=[N+]([O-])c1ccc(Nc2nnc(-c3ccccc3)s2)cc1`, which inhibition at 6.25 µg/mL is on record?
**A.** Its inhibition at 6.25 µg/mL is 18%.

**Q.** `Brc1ccc(-c2nnc(Nc3ccccc3)s2)cc1` was tested. Which inhibition at 6.25 µg/mL did it give?
**A.** The inhibition at 6.25 µg/mL was 0%.

**Q.** `O=[N+]([O-])c1ccc(Nc2nnc(-c3ccc(Br)cc3)s2)cc1` was tested. Which inhibition at 6.25 µg/mL did it give?
**A.** Its inhibition at 6.25 µg/mL is 43%.

**Q.** With `Clc1ccc(-c2nnc(Nc3ccc(Br)cc3)s2)cc1` as the compound, how does the inhibition at 6.25 µg/mL read?
**A.** The inhibition at 6.25 µg/mL was 34%.

**Q.** How did the inhibition at 6.25 µg/mL turn out when `Clc1ccc(Nc2nnc(-c3ccc(Cl)cc3)s2)cc1` was run?
**A.** The inhibition at 6.25 µg/mL was 32%.

**Q.** With `O=[N+]([O-])c1ccc(Nc2nnc(-c3ccc(F)cc3)s2)cc1` as the compound, how does the inhibition at 6.25 µg/mL read?
**A.** Its inhibition at 6.25 µg/mL is 8%.

**Q.** With `O=[N+]([O-])c1ccc(-c2nnc(Nc3ccc(Br)cc3)s2)cc1` as the compound, how does the inhibition at 6.25 µg/mL read?
**A.** Its inhibition at 6.25 µg/mL is 26%.

**Q.** Which inhibition at 6.25 µg/mL does the source give for `Clc1ccc(Nc2nnc(-c3ccc(Br)cc3)s2)cc1` here?
**A.** Its inhibition at 6.25 µg/mL is 33%.

**Q.** Which inhibition at 6.25 µg/mL does the source give for `Fc1ccc(Nc2nnc(-c3ccc(Br)cc3)s2)cc1` here?
**A.** Its inhibition at 6.25 µg/mL is 42%.

**Q.** For `Cc1ccc(Nc2nnc(-c3ccc(Br)cc3)s2)cc1`, which inhibition at 6.25 µg/mL is on record?
**A.** The inhibition at 6.25 µg/mL was 31%.

**Q.** With `Brc1ccc(Nc2nnc(-c3ccccc3)s2)cc1` as the compound, how does the inhibition at 6.25 µg/mL read?
**A.** Its inhibition at 6.25 µg/mL is 36%.

**Q.** How did the inhibition at 6.25 µg/mL turn out when `Brc1ccc(Nc2nnc(-c3ccncc3)s2)cc1` was run?
**A.** The inhibition at 6.25 µg/mL was 53%.

**Q.** For `c1ccc(Nc2nnc(-c3ccncc3)s2)cc1`, which inhibition at 6.25 µg/mL is on record?
**A.** The inhibition at 6.25 µg/mL was 38%.

**Q.** How did the inhibition at 6.25 µg/mL turn out when `Brc1ccc(Nc2nnc(-c3ccc(Br)cc3)s2)cc1` was run?
**A.** Its inhibition at 6.25 µg/mL is 33%.

**Q.** `Cc1ccc(Nc2nnc(-c3ccc([N+](=O)[O-])cc3)s2)cc1` was tested. Which inhibition at 6.25 µg/mL did it give?
**A.** Its inhibition at 6.25 µg/mL is 33%.

**Q.** Which inhibition at 6.25 µg/mL does the source give for `O=[N+]([O-])c1ccc(Nc2nnc(-c3ccc(Cl)cc3)s2)cc1` here?
**A.** Its inhibition at 6.25 µg/mL is 44%.

**Q.** With `Cc1ccc(Nc2nnc(-c3ccc(Cl)cc3)s2)cc1` as the compound, how does the inhibition at 6.25 µg/mL read?
**A.** Its inhibition at 6.25 µg/mL is 42%.

**Q.** How did the inhibition at 6.25 µg/mL turn out when `Cc1ccc(Nc2nnc(-c3ccc(F)cc3)s2)cc1` was run?
**A.** Its inhibition at 6.25 µg/mL is 39%.

**Q.** For `Fc1ccc(Nc2nnc(-c3ccncc3)s2)cc1`, which inhibition at 6.25 µg/mL is on record?
**A.** Its inhibition at 6.25 µg/mL is 49%.

**Q.** How did the inhibition at 6.25 µg/mL turn out when `O=[N+]([O-])c1ccc(-c2nnc(Nc3ccc(Cl)cc3)s2)cc1` was run?
**A.** The inhibition at 6.25 µg/mL was 29%.
